Measured values: patent publication US6784155B1, “Inhibitor and stimulator of stem cell proliferation and uses thereof” (Wellstat Therapeutics Corporation, priority 1996, dated 2004)
No end group written: not given here. *: point of attachment. Biotin = O=C1N[C@H]2[C@H](CS[C@H]2CCCCC(=O)*)N1; C4 linker = not defined here

Tests used:
[1] = test system: CFU-MIX; assay: CFU-MIX cycling assay in vitro (Ara C kill); type: cell-based, mouse
Method: A similar assay can be performed in vitro, using the cycling status of CFU-MIX instead of CFU-S. The assay is performed as described above for the CFU-S assay except that cytosine arabinoside (Ara C, 30 micrograms/ml) is used as the cycle-specific toxic agent instead of high dose tritiated thymidine (see B. I. Lord in Haemopoiesis—A Practical Approach, N. G. Testa and G. Molineux (Eds.), IRL Press 1993; Pragnell et al. in Culture of Hematopoietic Cells, R. I. Freshney, I. B. Pragnell and M. G. Freshney (Eds.), Wiley Liss 1994) and a mouse strain with high endogenous cycling rates (Balb/c) is used instead of testosterone-treated BDFI mice.
(§1) 24 hours later (Day 1), varying doses of peptide 43-55 or vehicle were injected i.v. Bone marrow was harvested on Day 2 and the […] cycling assay conducted as in Example 14. Specifically, mice were sacrificed and single cell bone marrow suspensions prepared from the femurs. The cells were washed once and the concentration adjusted to 5×10^6 cells/ml in Fischer medium. For each test condition, one milliliter of cells was added to each of two polypropylene tubes. The tubes were incubated at 37° C. for 3 hours without (“Control”) or with (“Experimental”) the appropriate concentration of test substance. At the end of the incubation, 30 μg/ml of cytosine arabinoside (“Ara C” (Sigma)) was added to half of the tubes and the same volume of Fischer's medium was added to the others. The tubes were incubated for a further 1 hour at 37° C., after which they were placed on ice and washed twice with cold Fischer medium.
(§2) The cells were readjusted to 5×10^4-10^6/ml in Fischer's medium and 0.5 ml of cell suspension added to 5 ml of Methocult M3430 methylcellulose medium (Stem Cell Technologies, Vancouver, British Columbia). The mixture was vigorously mixed with a vortex and 1 ml was dispensed into each of five 35 mm dishes. The 35 mm dishes were in turn placed in a covered 150 mm dish with one open 35 mm dish containing sterile water. CFU-MIX colonies were counted with the use of an inverted microscope after 7 days of incubation at 37° C.
Differences in colony number between the tubes treated with medium versus the tubes treated with Ara C represent the percentage of cells in cycle under that condition according to the formula:
a=Number of CFU-MIX from tube incubated with medium alone
b=Number of CFU-MIX from tube incubated with Ara C

[2] = test system: CFU-MIX; assay: Stimulation of cycling of quiescent murine stem cells, CFU-MIX cycling assay in vitro; type: cell-based, mouse
Method: Microgram per milliliter doses of hemoglobin chains, myoglobin and peptides were assayed for stimulation of quiescent stem cells. Bone marrow was obtained from untreated B6D2F1 tested in the CFU-MIX cycling assay as in Example 24. Stem cells isolated from untreated B6D2F1 mice are normally slowly cycling unless stimulated (e.g. by testosterone propionate (cf. Example 1) or chemotherapy such as 5FU (cf. Example 4)) to enter into cycle.

[3] = test system: CFU-GEMM; assay: CFU-GEMM cycling assay, mobilized human peripheral blood; type: cell-based
Method: Peripheral blood was obtained from breast cancer patients undergoing peripheral stem cell mobilization with cyclophosphamide and G-CSF according to standard protocols. Red blood cells were removed with FicolU Hypaque (cells were diluted 1:1 with IMDM and 20 ml layered on top of 16 ml Ficoll and centrifuged at 800 g for 30 minutes; mononuclear cells were removed from the interphase and washed twice in IMDM). In one case mononuclear cells were stored frozen in liquid nitrogen before assay. The mononuclear cells were plated for the CFU-GEMM cycling assay as in Example 26 except that 2.5-5×10^5 cells were plated per dish.

[4] = test system: CFU-GEMM; assay: CFU-GEMM cycling assay, human umbilical cord blood cells; type: cell-based; settings: Table 32, cord blood mononuclear cells
Method: In order to investigate the ability of purified INPROL from porcine bone marrow to affect cycling on human progenitors, umbilical cord blood cells were obtained. Either the total mononuclear cell fraction obtained after separation on Ficoll or the CD34^+ fraction obtained after fractionation on anti-CD34 affinity columns (CellPro Inc.) was used. Cells were incubated for 48 hours in vitro in the presence of interleukin 3 (IL-3) and stem cell factor (SCF) (100 ng/ml each) in order to ensure that the early stem cells were in cycle. After this preincubation, cycling assays were conducted as described in Example 14 for the mouse except that CFU-GEMM (instead of CFU-MIX) were counted on Day 18 after plating.
The human cord blood CFU-GEMM cycling assay was conducted as in Example 19. Specifically, mononuclear cells were isolated from human umbilical cord blood cells and adjusted to 24×10^4 cells/ml in IMDM tissue culture medium supplemented with 10% FBS, 100 ng/ml kit ligand and 100 ng/ml human IL-3. The cells were incubated for 48 hours at 37° C.
After incubation, cells were washed and resuspended in serun-free NDM at a concentration of 10^6 cells/ml. One ml of cells was added to each of two polypropylene tubes per condition and the cycling assay conducted as in Example 24 for mouse bone marrow. After the Ara C incubation cells were washed with cold NDM and adjusted to 10,000 to 20,000 cells per 0.5 ml IMDM and mixed with 5 ml Methocult H4433 (Stem Cell Technologies). Alternatively, Methocult H4435 methylcellulose medium (Stem Cell Technologies) was used in which case the cell concentration was adjusted to 2500-5000 cells per 0.5 ml IMDM. The cells were plated as in Example 24 and CFU-GEMM colonies scored on days 14-18.

[5] = test system: CFU-MIX; assay: CFU-MIX cycling assay after in vivo injection into testosterone or 5FU treated mice; set-up: species or system mouse
Method: In order to test the ability of purified porcine hemoglobin chains to act in vivo, BDF1 mice were injected with testosterone propionate as described in Example 1. Twenty four hours later, mice received 500 ng of either pINPROL, porcine hemoglobin alpha chain (purified from peripheral red blood cells as in FIG. 21), porcine beta chain (purified from peripheral red blood cells as in FIG. 21) or the equivalent volume of carrier intravenously. Forty eight hours later the bone marrow from each mouse was harvested and the CFU-MIX assay conducted as described in Example 14.
To assess the stem cell inhibitory activity of peptide 43-55 in vivo, B6D2 F1 mice were pre-treated with testosterone propionate as described in Example 1 or with 5FU. Specifically, testosterone propionate (100 mg/kg body weight) was injected i.p. on Day 0 into mice. Alternatively, mice were injected on Day 0 with 5FU ([…] body weight).
as §1, §2
Differences in colony number between the tubes treated with medium versus the tubes treated with Ara C represent the percentage of cells in cycle under that condition according to the formula: […]

[6] = Table 39, untreated B6D2F1 bone marrow, 10^−3M
[7] = Table 39, untreated B6D2F1 bone marrow, 10^−5M
[8] = Table 26, Balb/c bone marrow, 10^−5M
[9] = Table 26, Balb/c bone marrow, 10^−7M
[10] = Table 26, Balb/c bone marrow, 10^−9M
[11] = Table 13, bone marrow from Balb/c mice, 100 ng/ml
[12] = Table 38, untreated B6D2F1 bone marrow, concentration printed only as (μg/ml)
[13] = Table 9, bone marrow from Balb/c mice, 100 ng/ml
[14] = Table 10, testosterone-treated BDF1 mice, 500 ng intravenously (footnote: 100 ng/ml), marrow 48 hours later

“1-94 fragment: purified formic-acid cleaved fragment, amino acids 1-94 of human alpha hemoglobin chain” was tested, and the “% Kill” value ([1]; Table 20, Balb/c bone marrow, 100 ng/ml) was 0%.

In the case of `CC(C)C[C@@H](NC(=O)[C@H](Cc1ccccc1)NC(=O)CNC(=O)[C@@H](C)NC(=O)[C@@H](N)Cc1ccc(O)cc1)C(=O)O` [DADLE, reference compound], the “% Kill” value [2, 6] is reported as 0% and the “% Kill” value [2, 7] is reported as 0%.

With `C[C@@H](NC(=O)[C@@H](N)Cc1ccc(O)cc1)C(=O)NCC(=O)N(C)[C@@H](Cc1ccccc1)C(=O)NCCO` [DAMGO, (D-Ala^2,N-Me-Phe^4,Gly-ol^5)-Enkephalin, reference compound] the “% Kill” value [1, 8] was 15%, the “% Kill” value [1, 9] was 0% and the “% Kill” value [1, 10] was 38%. For the same molecule, the “% Kill” value ([3]; Table 35, Patient #2, 10^−7M) was 15% and the “% Kill” value ([3]; Table 35, Patient #2, 10^−9M) was 0%.

For `CN1CC[C@]23c4c5ccc(O)c4O[C@H]2[C@@H](O)C=C[C@H]3[C@H]1C5` [Morphine, morphine, reference compound], the “% Kill” value ([1]; Table 25, Balb/c bone marrow, 10^−7M) was 10%, the “% Kill” value ([1]; Table 25, Balb/c bone marrow, 10^−9M) was 15% and the “% Kill” value ([1]; Table 25, Balb/c bone marrow, 10^−11M) was 32%. The “% Kill” value ([3]; Table 35, Patient #2, 10^−7M) was 24% and the “% Kill” value ([3]; Table 35, Patient #2, 10^−9M) was 0%.

`C=CCN1CC[C@]23c4c5ccc(O)c4O[C@H]2C(=O)CC[C@@]3(O)[C@H]1C5` [Naloxone, naloxone, reference compound] was tested, and the “effect of naloxone itself on the assay” value ([1]; 10^−5-10^−7M) was “no effect”, the “% Kill” value ([1]; Table 28, naloxone alone, 10^−5M final concentration) was 36% and the “% Kill” value ([1]; Table 30, 10^−10M) was 0%.

For “(D-Arg^2, Lys^4)-Dermorphin-(1-4)-amide [DALDA, reference compound]”, the “% Kill” value [1, 8] was 47%, the “% Kill” value [1, 9] was 0% and the “% Kill” value [1, 10] was 34%. The “% Kill” value [2, 6] was 41% and the “% Kill” value [2, 7] was 24%.

“Biotinylated alpha chain: human hemoglobin alpha chain from hemoglobin treated with NHS LC Biotin” was tested, and the “% Kill” value [1, 11] was 7%.

With “Biotinylated beta chain: human hemoglobin beta chain from hemoglobin treated with NHS LC Biotin” the “% Kill” value [1, 11] was 25%.

“Biotinylated peptide 43-55: Peptide 43-55 with biotin linked via a C4 carbon linker to the N-terminal NH2 of Phe43 ({Biotin-C4 linker}-FPHFDLSHGSAQV; reading uncertain; UniProt P69905 44-56, looked up, fragment)” was tested, and the “% Kill” value ([1]; Table 24, 1 ng/ml) was 15%.

“DALTNAVAHVDDMPNALSA [Peptide 64-82, amino acids 64-82 of human alpha hemoglobin]” was tested, and the “% Kill” value ([1]; Table 18, 100 ng/ml) was 9%, the “% Kill” value ([4]; 1 ng/ml) was 21% and the “% Kill” value ([4]; 10 ng) was 20%. The “% Kill” value ([4]; 100 ng/ml) was 39% and the “% Kill” value ([2]; Table 42, untreated B6D2F1 bone marrow, 1 μg/ml) was 25%.

In the case of “H-D-Phe-Cys-Tyr-D-Trp-Orn-Thr-Pen-Thr-NH2 [CTOP, reference compound]”, the “effect of CTOP itself on the assay” value ([1]; 10^−7 M) is reported as “no effect” and the “% Kill” value ([1]; Table 31, CTOP alone, 10^−7M final concentration) is reported as 36%.

For “Human beta chain: purified human hemoglobin beta chain”, the “% Kill” value ([1]; Table 11, bone marrow from Balb/c mice, 100 ng/ml) was 41%, the “% Kill” value [1, 11] was 55% and the “% Kill” value [2, 12] was 55%.

With “Human delta chain: purified human hemoglobin delta chain” the “% Kill” value ([1]; Table 12, bone marrow from Balb/c mice, 100 ng/ml) was −4% and the “% Kill” value ([1]; Table 29, 100 ng/ml, alone) was 10%.

For Human hemoglobin: human hemoglobin, the “% Kill” value ([5]; Table 14, testosterone-treated BDF1 mice, 500 ng/mouse) was −31%.

“Leu-Val-Val-Tyr-Pro-Trp-Thr-Gln-Arg-Phe (LVVYPWTQRF; printed: Leu-Val-Val-Tyr-Pro-Trp-Thr-Gln-Arg-Phe) [Hemorphin 10, reference compound]” was tested, and the “% Kill” value ([1]; Table 18, 100 ng/ml) was 1% and the “% Kill” value ([1]; Table 28, 100 ng/ml, alone) was 0%.

For “Porcine alpha chain: porcine hemoglobin alpha chain purified from peripheral red blood cells as in FIG. 21”, the “% Kill” value [1, 13] was −4% and the “% Kill” value [5, 14] was 5%.

For “Porcine beta chain: porcine hemoglobin beta chain purified from peripheral red blood cells as in FIG. 21”, the “% Kill” value [1, 13] was −14% and the “% Kill” value [5, 14] was −5%.

With “VVYPWTQR [Hemorphin 7, reference compound]” the “% Kill” value ([1]; Table 18, 100 ng/ml) was 0%.

B1: Human Myoglobin: human myoglobin (protein, UniProt P02144 2-154, looked up)
Myoglobin: GLSDGEWQLVLNVWGKVEADIPGHGQEVLIRLFKGHPETLEKFDKFKHLKSEDEMKASEDLKKHGATVLTALGGILKKKGHHEAEIKPLAQSHATKHKIPVKYLEFISECIIQVLQSKHPGDFGADAQGAMNKALELFRKDMASNYKELGFQG
With B1 the “stem cell inhibitory activity, in words” value ([1]; CFU-MIX cycling assay) was “inactive” and the “% Kill” value [2, 12] was 30%.
